Results: patent US8822517B2, “Arylosulfonamides for the treatment of CNS diseases” (Adamed SP. Z O.O., priority 2010, dated 2014)

Tests used:
sigma σ receptor = assay: Binding assay σ (non-selective), [3H]DTG, rat cerebral cortex; conditions: percent inhibition of control specific binding; compounds tested at 1×10^−6 M
How it was run: (§1)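 Detection relied on scintillation counting of bound ligand. Compounds at 1×10^−6 M were evaluated against specific binding, i.e. total binding corrected for the nonspecific fraction seen with excess unlabelled ligand.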

adrenergic α1 receptor = assay: Binding assay α1 (non-selective), [3H]prazosin, rat cerebral cortex; conditions: percent inhibition of control specific binding; compounds tested at 1×10^−6 M
How it was run: as §1

muscarinic M3 receptor = target: T1, muscarinic M3 receptor (Homo sapiens, UniProt P20309); assay: Binding assay M3 (h), [3H]4-DAMP, CHO cells; conditions: read-out: M3 [%]
T1 construct: expressed in transfected cells; host or cells: CHO cells
How it was run: as §1

[1] = target: T2, serotoninergic receptor 5-HT2C (Homo sapiens, UniProt P28335); assay: Binding assay 5-HT2C (h), [3H]mesulergine, HEK-293 cells; conditions: read-out: 5-HT2C [%]
T2 construct: expressed in transfected cells; host or cells: HEK-293 cells
T2 sequence (P28335 33-458): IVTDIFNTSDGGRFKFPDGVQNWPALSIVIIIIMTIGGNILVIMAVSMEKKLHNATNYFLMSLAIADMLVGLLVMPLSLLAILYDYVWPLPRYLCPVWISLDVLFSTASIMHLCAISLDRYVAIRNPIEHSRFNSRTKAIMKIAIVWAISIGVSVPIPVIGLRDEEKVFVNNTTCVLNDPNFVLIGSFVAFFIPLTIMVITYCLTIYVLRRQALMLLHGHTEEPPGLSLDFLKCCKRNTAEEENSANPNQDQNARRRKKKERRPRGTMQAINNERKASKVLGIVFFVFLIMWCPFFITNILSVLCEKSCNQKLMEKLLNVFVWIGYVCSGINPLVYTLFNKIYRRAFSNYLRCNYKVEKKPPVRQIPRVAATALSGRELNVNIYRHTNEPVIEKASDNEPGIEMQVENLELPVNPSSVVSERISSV
How it was run: as §1

[2] = target: T3, serotoninergic 5-HT1A receptor (Homo sapiens, UniProt P08908); assay: Cellular functional assay, serotoninergic 5-HT1A receptor (agonism/antagonism); assay type: cell-based; conditions: for inhibition at 1 µM: CHO, read-out: 5-HT1A-antag. [%]; for activation at 1 µM: agonist effect, percent of control specific agonist response (100 nM 8-OH-DPAT for control), 1×10^−6 M, 5-HT1A (h), CHO cells, read-out: 5-HT1A-ag [%]
T3 sequence (P08908 1-422): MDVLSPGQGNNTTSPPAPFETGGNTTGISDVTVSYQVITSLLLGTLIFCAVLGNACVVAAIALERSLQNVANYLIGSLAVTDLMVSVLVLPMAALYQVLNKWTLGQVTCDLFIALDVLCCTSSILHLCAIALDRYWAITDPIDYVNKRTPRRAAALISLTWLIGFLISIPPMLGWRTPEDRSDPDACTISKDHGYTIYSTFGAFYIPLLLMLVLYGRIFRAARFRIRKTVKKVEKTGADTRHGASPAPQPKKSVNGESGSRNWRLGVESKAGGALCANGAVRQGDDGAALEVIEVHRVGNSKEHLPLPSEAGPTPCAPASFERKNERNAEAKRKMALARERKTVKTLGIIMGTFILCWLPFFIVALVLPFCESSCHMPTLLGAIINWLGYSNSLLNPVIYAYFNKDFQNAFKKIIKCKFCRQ
Method: (§2) The compounds were tested at the concentration of 1×10^−6M.
(§3) In the Tables ag refers to agonism, and antag to antagonism).

[3] = target: T4, serotoninergic 5-HT2A receptor (Homo sapiens, UniProt P28223); assay: Cellular functional assay, serotoninergic 5-HT2A receptor (agonism/antagonism); assay type: cell-based; conditions: for activation at 1 µM: read-out: 5-HT2A -ag [%]; for inhibition at 1 µM: read-out: 5-HT2A -antag [%]
How it was run: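 Human receptors tested in cell-based functional format for both agonist and antagonist modes. Single compound concentration of 1×10^−6M.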

[4] = target: T5, serotoninergic 5-HT6 receptor (Homo sapiens, UniProt P50406); assay: Cellular functional assay, serotoninergic 5-HT6 receptor (agonism/antagonism); assay type: cell-based; conditions: for activation at 1 µM: agonist effect, percent of control specific agonist response, compounds tested at 1×10^−6M, read-out: 5-HT6-ag [%]; for inhibition at 1 µM: read-out: 5-HT6-antag. [%]
Method: as §2, §3

[5] = target: T6, serotoninergic 5-HT7 receptor (Homo sapiens, UniProt P34969); assay: Cellular functional assay, serotoninergic 5-HT7 receptor (agonism/antagonism); assay type: cell-based; conditions: for activation at 1 µM: agonist effect, percent of control specific agonist response, compounds tested at 1×10^−6M, read-out: 5-HT7-ag [%]; for inhibition at 1 µM: read-out: 5-HT7-antag. [%]
Method: as §2, §3

[6] = target: T5, serotoninergic 5-HT6 receptor; assay: Binding assay 5-HT6 (h), [3H]LSD, CHO cells; design: expressed in transfected cells; host or cells: CHO cells; conditions: read-out: 5-HT6
How it was run: as §1

[7] = target: T6, serotoninergic 5-HT7 receptor; assay: Binding assay 5-HT7 (h), [3H]LSD, CHO cells; design: expressed in transfected cells; host or cells: CHO cells; conditions: read-out: 5-HT7
How it was run: as §1

dopaminergic D2 receptor = dopaminergic D2 receptor (Homo sapiens, UniProt P14416); assay: Binding assay D2S (h), [3H]methyl-spiperone, HEK-293 cells; design: expressed in transfected cells; host or cells: HEK-293 cells; conditions: read-out: D2 [%]
How it was run: as §1

[8] = target: T4, serotoninergic 5-HT2A receptor; assay: Binding assay 5-HT2A (h), [3H]ketanserin, HEK-293 cells; design: expressed in transfected cells; host or cells: HEK-293 cells; conditions: read-out: 5-HT2A
How it was run: as §1

T6 sequence (P34969 whole entry): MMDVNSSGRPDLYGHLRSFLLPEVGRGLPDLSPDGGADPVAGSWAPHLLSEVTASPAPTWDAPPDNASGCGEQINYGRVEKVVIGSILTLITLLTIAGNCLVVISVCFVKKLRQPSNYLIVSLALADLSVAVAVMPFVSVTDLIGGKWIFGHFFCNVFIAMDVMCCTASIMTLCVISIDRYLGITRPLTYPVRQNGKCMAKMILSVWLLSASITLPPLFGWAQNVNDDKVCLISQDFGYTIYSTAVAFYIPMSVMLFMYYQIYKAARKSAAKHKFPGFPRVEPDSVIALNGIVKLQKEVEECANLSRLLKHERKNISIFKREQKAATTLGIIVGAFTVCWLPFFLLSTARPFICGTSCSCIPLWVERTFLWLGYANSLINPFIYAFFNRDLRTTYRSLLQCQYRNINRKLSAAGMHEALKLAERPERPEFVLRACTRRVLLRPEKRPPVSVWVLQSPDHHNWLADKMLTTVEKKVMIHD
T1 sequence (P20309 whole entry): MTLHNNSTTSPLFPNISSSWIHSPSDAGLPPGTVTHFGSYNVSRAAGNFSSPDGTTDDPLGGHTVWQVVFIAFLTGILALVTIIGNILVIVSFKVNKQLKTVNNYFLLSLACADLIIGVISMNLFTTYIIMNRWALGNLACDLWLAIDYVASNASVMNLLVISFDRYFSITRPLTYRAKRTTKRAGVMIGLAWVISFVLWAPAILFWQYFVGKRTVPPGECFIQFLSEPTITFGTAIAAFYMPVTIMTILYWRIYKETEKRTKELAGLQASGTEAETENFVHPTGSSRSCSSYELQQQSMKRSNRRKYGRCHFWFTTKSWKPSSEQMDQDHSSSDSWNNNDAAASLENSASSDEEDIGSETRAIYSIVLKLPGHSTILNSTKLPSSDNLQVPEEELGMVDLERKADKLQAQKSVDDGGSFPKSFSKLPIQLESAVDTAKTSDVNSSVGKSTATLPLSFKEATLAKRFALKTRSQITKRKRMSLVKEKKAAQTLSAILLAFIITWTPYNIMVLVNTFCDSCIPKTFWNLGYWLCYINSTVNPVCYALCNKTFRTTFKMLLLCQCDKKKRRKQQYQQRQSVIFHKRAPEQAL
Chain of dopaminergic D2 receptor (P14416 1-414 isoform P14416-2): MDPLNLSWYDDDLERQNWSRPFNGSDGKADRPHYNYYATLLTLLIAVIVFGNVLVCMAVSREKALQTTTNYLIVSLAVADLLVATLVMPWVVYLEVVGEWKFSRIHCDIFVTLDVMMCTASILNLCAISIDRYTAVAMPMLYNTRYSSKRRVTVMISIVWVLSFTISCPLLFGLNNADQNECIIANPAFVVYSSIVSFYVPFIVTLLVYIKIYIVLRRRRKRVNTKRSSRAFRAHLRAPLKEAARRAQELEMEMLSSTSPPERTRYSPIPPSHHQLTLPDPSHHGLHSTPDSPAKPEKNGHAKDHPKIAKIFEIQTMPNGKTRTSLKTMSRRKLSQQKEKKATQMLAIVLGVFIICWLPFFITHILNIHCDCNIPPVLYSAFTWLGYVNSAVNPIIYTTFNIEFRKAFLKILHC
T5 sequence (P50406 whole entry): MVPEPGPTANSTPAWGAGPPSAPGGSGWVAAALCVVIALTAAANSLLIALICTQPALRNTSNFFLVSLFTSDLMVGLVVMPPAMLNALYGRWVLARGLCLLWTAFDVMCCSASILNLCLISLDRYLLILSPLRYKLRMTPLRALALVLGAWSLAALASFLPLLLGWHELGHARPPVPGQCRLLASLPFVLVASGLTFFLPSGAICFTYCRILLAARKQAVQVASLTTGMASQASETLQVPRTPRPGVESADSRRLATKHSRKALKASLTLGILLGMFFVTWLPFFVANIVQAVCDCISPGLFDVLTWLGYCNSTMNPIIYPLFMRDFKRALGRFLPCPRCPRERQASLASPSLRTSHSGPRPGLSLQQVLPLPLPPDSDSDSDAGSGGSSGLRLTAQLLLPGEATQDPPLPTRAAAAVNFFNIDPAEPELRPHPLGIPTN
T4 sequence (P28223 whole entry): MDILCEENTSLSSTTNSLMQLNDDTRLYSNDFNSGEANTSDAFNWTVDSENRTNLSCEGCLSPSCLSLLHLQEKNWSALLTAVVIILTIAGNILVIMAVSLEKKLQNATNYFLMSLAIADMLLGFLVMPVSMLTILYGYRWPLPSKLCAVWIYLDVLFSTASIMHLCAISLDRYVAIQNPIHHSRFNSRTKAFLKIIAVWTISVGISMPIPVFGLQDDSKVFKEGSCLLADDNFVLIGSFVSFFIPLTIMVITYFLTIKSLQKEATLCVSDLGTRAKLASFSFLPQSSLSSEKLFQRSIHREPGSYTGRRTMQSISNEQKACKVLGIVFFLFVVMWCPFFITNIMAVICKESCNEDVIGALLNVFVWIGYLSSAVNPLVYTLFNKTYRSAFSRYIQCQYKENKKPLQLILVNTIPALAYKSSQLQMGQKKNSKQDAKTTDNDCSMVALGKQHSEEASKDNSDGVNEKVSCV

SMILES | σ [%] (sigma σ receptor) | α1 [%] (adrenergic α1 receptor) | inhibition at 1 µM (muscarinic M3 receptor) [%] | inhibition at 1 µM [1] [%] | inhibition at 1 µM [2] [%] | activation at 1 µM [2] [%] | activation at 1 µM [3] [%] | inhibition at 1 µM [3] [%] | activation at 1 µM [4] [%] | inhibition at 1 µM [4] [%] | activation at 1 µM [5] [%] | inhibition at 1 µM [5] [%] | inhibition at 1 µM [6] [%] | inhibition at 1 µM [7] [%] | inhibition at 1 µM (dopaminergic D2 receptor) [%] | inhibition at 1 µM [8] [%]
O=c1[nH]c2ccc(S(=O)(=O)NCCCN3CCN(c4nsc5ccccc45)CC3)cc2o1 [Compound 8, N-(3-(4-(1,2-Benzothiazol-3-yl)piperazin-1-yl)propyl)-2-oxo-3H-1,3-benzoxazole-6-sulphonamide] | 17 | 94 | -11 | 90 | 81 | 14 | -2 | 99 | -1 | 64 | -1 | 82 | 91 | 97 | 98 | 100
O=c1[nH]c2ccc(S(=O)(=O)NCCCCN3CCN(c4noc5ccccc45)CC3)cc2o1 [Compound 16, N-(4-(4-(1,2-Benzoxazol-3-yl)piperazin-1-yl)butyl)-2-oxo-3H-1,3-benzoxazole-6-sulphonamide] | 2 | 101 | -1 | 53 | 91 | -14 | -1 | 98 | 0 | 50 | -1 | 80 | 94 | 99 | 99 | 100
Cc1cccc(S(=O)(=O)NCCCN2CCC(c3noc4cc(F)ccc34)CC2)c1 [Compound 22, N-[3-[4-(6-Fluoro-1,2-benzoxazol-3-yl)piperidin-1-yl]propyl]-3-methylbenzenesulphonamide] | 92 | 100 | 12 | 73 | 99 | 0 | -1 | 102 | 1 | 82 | -1 | 100 | 99 | 99 | 96 | 99
O=S(=O)(NCCCCN1CCN(c2nsc3ccccc23)CC1)c1ccc2cc(Cl)ccc2c1 [Compound 61, N-[4-[4-(1,2-Benzothiazol-3-yl)piperazin-1-yl]butyl]-6-chloro-naphthalene-2-sulphonamide] | 46 | 94 | 5 | 95 | 20 | 75 | 0 | 97 | -2 | 72 | -1 | 78 | 96 | 100 | 100 | 100
Cc1c(S(=O)(=O)NCCCCN2CCN(c3nsc4ccccc34)CC2)sc2ccc(F)cc12 [Compound 65, N-[4-[4-(1,2-Benzothiazol-3-yl)piperazin-1-yl]butyl]-5-fluoro-3-methylbenzothiophene-2-sulphonamide] | 62 | 95 | 8 | 95 | 35 | 9 | -2 | 98 | -1 | 81 | -2 | 91 | 97 | 98 | 99 | 101
Cc1c(S(=O)(=O)NCCCCN2CCN(c3noc4ccccc34)CC2)sc2ccc(F)cc12 [Compound 81, N-[4-[4-(1,2-Benzoxazol-3-yl)piperazin-1-yl]butyl]-5-fluoro-3-methylbenzothiophene-2-sulphonamide] | 59 | 96 | 6 | 50 | 22 | 5 | -1 | 95 | 1 | 88 | -2 | 98 | 98 | 99 | 90 | 101
O=S(=O)(NCCCCN1CCC(c2noc3cc(F)ccc23)CC1)c1ccc2cc(Cl)ccc2c1 [Compound 97, 6-Chloro-N-[4-[4-(6-fluoro-1,2-benzoxazol-3-yl)piperidin-1-yl]butyl]naphthalene-2-sulphonamide] | 55 | 98 | 16 | 89 | 38 | 13 | -3 | 102 | -2 | 95 | -2 | 100 | 98 | 93 | 100 | 100
Cc1c(S(=O)(=O)NCCCN2CCC(c3noc4cc(F)ccc34)CC2)sc2ccc(F)cc12 [Compound 102, 5-Fluoro-N-[3-[4-(6-fluoro-1,2-benzoxazol-3-yl)piperidin-1-yl]propyl]-3-methylbenzothiophene-2-sulphonamide] | 74 | 99 | 18 | 76 | 35 | 1 | -2 | 99 | -1 | 82 | -2 | 94 | 97 | 97 | 100 | 101
O=S(=O)(NCCCCN1CCN(c2nsc3ccccc23)CC1)c1cc2ccccc2s1 [Compound 239, N-[4-[4-(1,2-Benzothiazol-3-yl)piperazin-1-yl]butyl]benzothiophene-2-sulphonamide] | 69 | 99 | 9 | 88 | 58 | 7 | -2 | 94 | 0 | 70 | -2 | 81 | 96 | 98 | 102 | 101
